Test results published in PubChem BioAssay AID2060622 (Molecular Pharmacology Branch, DTP, NCI, 2025).
pIC50: −log10 of the molar value. “And” between values parts separate entries of the source, which are not always exact repeats. Identical values can stand only once.

Test system: 242566-281-R-J2-PDC complex spheroid viability
Experiment: Anticancer human tumor 242566-281-R-J2-PDC patient-derived pancreatic carcinoma cell line growth inhibition [CLK]
Conditions: for viability, T/C: stronger effect = lower value
How it was run: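 Multi-cell-type spheroids combined patient-derived tumor cells with HUVEC endothelial cells and human mesenchymal stem cells. Paired agents were dosed in half-log steps down from about clinical Cmax, or from 10 microM where Cmax was unknown.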

[1] = curve of first compound, second compound 0.0316 µM
[2] = curve of first compound, second compound 0.1 µM
[3] = curve of first compound, second compound 0.316 µM
[4] = curve of first compound, second compound 1 µM
[5] = curve of first compound, second compound 3.16 µM
[6] = curve of first compound, second compound 10 µM
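Further: spheroids exposed to compounds for 7 days before readout.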
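Wherever viability, T/C is given: 100% = DMSO vehicle control wells.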

`O=C(c1cc(Cc2n[nH]c(=O)c3ccccc23)ccc1F)N1CCN(C(=O)C2CC2)CC1` + CNC(=O)c1ccc(Nc2nc(OC3CCCC3)c3c(-c4ccc5nc(C)oc5c4)c[nH]c3n2)c(OC)c1 was tested, and the pIC50 [1] was less than 5.00, the pIC50 [2] was less than 5.00 and the pIC50 [3] was less than 5.00. It also gave a pIC50 [4] of less than 5.00, a pIC50 [5] of less than 5.00 and a pIC50 [6] of less than 5.00. For the same compound, the viability, T/C (second compound 0.0316 µM, first compound 0.0316 µM) was 94.9%, the viability, T/C (second compound 0.0316 µM, first compound 0.1 µM) was 110% and the viability, T/C (second compound 0.0316 µM, first compound 0.316 µM) was 96.1%. The viability, T/C (second compound 0.0316 µM, first compound 1 µM) was 115%, the viability, T/C (second compound 0.0316 µM, first compound 3.16 µM) was 95.6% and the viability, T/C (second compound 0.0316 µM, first compound 10 µM) was 81.9%. The viability, T/C (second compound 0.1 µM, first compound 0.0316 µM) was 97.9%, the viability, T/C (second compound 0.1 µM, first compound 0.1 µM) was 98.4% and the viability, T/C (second compound 0.1 µM, first compound 0.316 µM) was 117%. For the same compound, the viability, T/C (second compound 0.1 µM, first compound 1 µM) was 98.4%, the viability, T/C (second compound 0.1 µM, first compound 3.16 µM) was 88.4% and the viability, T/C (second compound 0.1 µM, first compound 10 µM) was 70.3%. For the same compound, the viability, T/C (second compound 0.316 µM, first compound 0.0316 µM) was 92.6%, the viability, T/C (second compound 0.316 µM, first compound 0.1 µM) was 83.6% and the viability, T/C (second compound 0.316 µM, first compound 0.316 µM) was 87.6%. The viability, T/C (second compound 0.316 µM, first compound 1 µM) was 92.7%, the viability, T/C (second compound 0.316 µM, first compound 3.16 µM) was 92% and the viability, T/C (second compound 0.316 µM, first compound 10 µM) was 65%. It also gave a viability, T/C (second compound 1 µM, first compound 0.0316 µM) of 81.9%, a viability, T/C (second compound 1 µM, first compound 0.1 µM) of 57.1% and a viability, T/C (second compound 1 µM, first compound 0.316 µM) of 65.5%. For the same compound, the viability, T/C (second compound 1 µM, first compound 1 µM) was 69.8%, the viability, T/C (second compound 1 µM, first compound 3.16 µM) was 70.5% and the viability, T/C (second compound 1 µM, first compound 10 µM) was 55.3%. The viability, T/C (second compound 3.16 µM, first compound 0.0316 µM) was 63%, the viability, T/C (second compound 3.16 µM, first compound 0.1 µM) was 60% and the viability, T/C (second compound 3.16 µM, first compound 0.316 µM) was 58.6%. It also gave a viability, T/C (second compound 3.16 µM, first compound 1 µM) of 51.7%, a viability, T/C (second compound 3.16 µM, first compound 3.16 µM) of 52.2% and a viability, T/C (second compound 3.16 µM, first compound 10 µM) of 56.2%. For the same compound, the viability, T/C (second compound 10 µM, first compound 0.0316 µM) was 52.5%, the viability, T/C (second compound 10 µM, first compound 0.1 µM) was 52.2% and the viability, T/C (second compound 10 µM, first compound 0.316 µM) was 52.7%. The viability, T/C (second compound 10 µM, first compound 1 µM) was 52.5%, the viability, T/C (second compound 10 µM, first compound 3.16 µM) was 46% and the viability, T/C (second compound 10 µM, first compound 10 µM) was 57.6%.
`CCN1CCN(Cc2ccc(Nc3ncc(F)c(-c4cc(F)c5nc(C)n(C(C)C)c5c4)n3)nc2)CC1` was tested, and the viability, T/C (compound 0.00316 µM) was 102% and 83%, the viability, T/C (compound 0.01 µM) was 102% and 94.6% and the viability, T/C (compound 0.0316 µM) was 90.6% and 95.6%. For the same compound, the viability, T/C (compound 0.1 µM) was 103% and 89%, the viability, T/C (compound 0.316 µM) was 118% and 100% and the viability, T/C (compound 1 µM) was 132% and 152%. For the same compound, the pIC50 (curve of compound) was less than 6.00.
`C=CC(=O)Nc1cc(Nc2nccc(-c3cn(C)c4ccccc34)n2)c(OC)cc1N(C)CCN(C)C` + CN1CCN(c2cc(C(=O)Nc3cc4cc(-c5cnn(C)c5)ccc4cn3)ccn2)CC1 was tested, and the pIC50 [1] was less than 6.52, the pIC50 [2] was less than 6.52 and the pIC50 [3] was greater than 9.02. It also gave a pIC50 [4] greater than 9.02, a pIC50 [5] greater than 9.02 and a pIC50 [6] greater than 9.02. It also gave a viability, T/C (second compound 0.0316 µM, first compound 0.000949 µM) of 92.7%, a viability, T/C (second compound 0.0316 µM, first compound 0.003 µM) of 103% and a viability, T/C (second compound 0.0316 µM, first compound 0.00949 µM) of 91.8%. The viability, T/C (second compound 0.0316 µM, first compound 0.03 µM) was 96.7%, the viability, T/C (second compound 0.0316 µM, first compound 0.0949 µM) was 95.1% and the viability, T/C (second compound 0.0316 µM, first compound 0.3 µM) was 71.8%. It also gave a viability, T/C (second compound 0.1 µM, first compound 0.000949 µM) of 102%, a viability, T/C (second compound 0.1 µM, first compound 0.003 µM) of 85.8% and a viability, T/C (second compound 0.1 µM, first compound 0.00949 µM) of 84.2%. For the same compound, the viability, T/C (second compound 0.1 µM, first compound 0.03 µM) was 73.6%, the viability, T/C (second compound 0.1 µM, first compound 0.0949 µM) was 79.8% and the viability, T/C (second compound 0.1 µM, first compound 0.3 µM) was 62.9%. For the same compound, the viability, T/C (second compound 0.316 µM, first compound 0.000949 µM) was 32.1%, the viability, T/C (second compound 0.316 µM, first compound 0.003 µM) was 33.7% and the viability, T/C (second compound 0.316 µM, first compound 0.00949 µM) was 27.7%. For the same compound, the viability, T/C (second compound 0.316 µM, first compound 0.03 µM) was 23%, the viability, T/C (second compound 0.316 µM, first compound 0.0949 µM) was 25.2% and the viability, T/C (second compound 0.316 µM, first compound 0.3 µM) was 20.1%. The viability, T/C (second compound 1 µM, first compound 0.000949 µM) was 4.67%, the viability, T/C (second compound 1 µM, first compound 0.003 µM) was 4.02% and the viability, T/C (second compound 1 µM, first compound 0.00949 µM) was 4.33%. For the same compound, the viability, T/C (second compound 1 µM, first compound 0.03 µM) was 3.28%, the viability, T/C (second compound 1 µM, first compound 0.0949 µM) was 2.72% and the viability, T/C (second compound 1 µM, first compound 0.3 µM) was 2.12%. The viability, T/C (second compound 3.16 µM, first compound 0.000949 µM) was 6.9%, the viability, T/C (second compound 3.16 µM, first compound 0.003 µM) was 6.41% and the viability, T/C (second compound 3.16 µM, first compound 0.00949 µM) was 6.23%. The viability, T/C (second compound 3.16 µM, first compound 0.03 µM) was 6.27%, the viability, T/C (second compound 3.16 µM, first compound 0.0949 µM) was 5.66% and the viability, T/C (second compound 3.16 µM, first compound 0.3 µM) was 4.09%. For the same compound, the viability, T/C (second compound 10 µM, first compound 0.000949 µM) was 2.35%, the viability, T/C (second compound 10 µM, first compound 0.003 µM) was 1.98% and the viability, T/C (second compound 10 µM, first compound 0.00949 µM) was 1.72%. For the same compound, the viability, T/C (second compound 10 µM, first compound 0.03 µM) was 2.34%, the viability, T/C (second compound 10 µM, first compound 0.0949 µM) was 2.25% and the viability, T/C (second compound 10 µM, first compound 0.3 µM) was 1.2%.
